In patent US10663548B2, “System and method for magnetic resonance imaging” (The University of Western Ontario, priority 2008, dated 2020):
Like-named read-outs stand apart in the source and are kept apart here.

How the values were obtained:
[1] = tested on: albumin; conditions: 1.5 T, cited from earlier work
[2] = target: T1, rabbit serum albumin (Oryctolagus cuniculus, UniProt P49065); assay: MRI phantom imaging (T1 weighted and DREMR) with and without rabbit serum albumin; conditions: 1.5 T, 21° C.
T1 construct: purchased Sigma-Aldrich batch 104K7560 (catalogue number not given)
Protocol: The particular choice of agent/protein pair was based by the availability of the contrast agent and its well-documented relaxivity mechanisms, rather than any specific clinical or research interest in albumin.
An MRI phantom (see FIG. 5a) was constructed that held two columns of six rows of glass tubes; each tube 3 cm in length with a 0.4 mL capacity. The sample tubes in the left column were filled with 0.01 M phosphate buffered saline (PBS) (NaCl 0.138M, KCl 0.0027M, pH 7.4 at 25° C.). The right column of sample tubes held a solute of rabbit serum albumin (Sigma-Aldrich, batch 104K7560, agarose gel electrophoresis) in PBS. The albumin, purchased as a lyophilized powder, was dissolved in PBS, at a 4.5% weight to volume ratio resulting in ˜0.67 mM concentration. Vasovist (0.25 mmol/mL) was added in equal concentration to both columns to achieve sample concentrations of 0, 10, 20, 40, 80 and 160 μM as a function of descending rows.
Imaging was performed on a Sigma LX 1.5 T clinical MRI machine (General Electric Healthcare), equipped with an actively shielded electromagnetic ΔB insert (19). […]

[3] = tested on: albumin; assay: Relaxivity in the presence and absence of albumin at 1.5 T; format: physicochemical
Protocol: To characterize the efficacy of an activatable contrast agent, the relaxivity enhancement ratio, that is the ratio of the activated relaxivity to the inactivated relaxivity can be defined. For Vasovist at a magnetic field strength equal to 1.5 T, the relaxivities in the presence and absence of albumin are 19 s^−1 mM^−1 and 5.2 s^−1 mM^−1 respectively, resulting in a relaxivity enhancement ratio of 3.7. From FIG. 3 it can be seen that the Vasovist relaxivity enhancement ratio peaks in the vicinity of a magnetic filed strength equal to 0.5 T, and falls quickly for magnetic field strengths above that value.
Defining R1′ and r1′ as the partial derivatives of R1 and r1 with respect to the polarizing magnetic field B0 results in R1′=R1Unenhanced′+r1′*[CA]. Applying the approximation that R1′Unenhanced≈0 for magnetic fields above 1.0 T, results in the expression R1′≈r1′*[CA]. […] For Vasovist, the relaxivity slope enhancement ratio (ratio of activated r1′ to inactivated r1′) is 90 at a magnetic field strength equal to 1.5 T. This represents a 25-fold increase over the absolute relaxivity enhancement ratio of 3.7 mentioned above. The high specificity of DREMR enhancement is not specific to Vasovist but applies to any T1 contrast agent that undergoes binding to large molecules (15).

[4] = target: human serum albumin (Homo sapiens, UniProt P02768); conditions: cited from earlier work; for increase of relaxivity of the bound form: in the presence of human serum albumin
[5] = target: T2, myeloperoxidase (Homo sapiens, UniProt P05164); conditions: in the presence of active myeloperoxidase; cited from earlier work
T2 sequence (P05164 49-745): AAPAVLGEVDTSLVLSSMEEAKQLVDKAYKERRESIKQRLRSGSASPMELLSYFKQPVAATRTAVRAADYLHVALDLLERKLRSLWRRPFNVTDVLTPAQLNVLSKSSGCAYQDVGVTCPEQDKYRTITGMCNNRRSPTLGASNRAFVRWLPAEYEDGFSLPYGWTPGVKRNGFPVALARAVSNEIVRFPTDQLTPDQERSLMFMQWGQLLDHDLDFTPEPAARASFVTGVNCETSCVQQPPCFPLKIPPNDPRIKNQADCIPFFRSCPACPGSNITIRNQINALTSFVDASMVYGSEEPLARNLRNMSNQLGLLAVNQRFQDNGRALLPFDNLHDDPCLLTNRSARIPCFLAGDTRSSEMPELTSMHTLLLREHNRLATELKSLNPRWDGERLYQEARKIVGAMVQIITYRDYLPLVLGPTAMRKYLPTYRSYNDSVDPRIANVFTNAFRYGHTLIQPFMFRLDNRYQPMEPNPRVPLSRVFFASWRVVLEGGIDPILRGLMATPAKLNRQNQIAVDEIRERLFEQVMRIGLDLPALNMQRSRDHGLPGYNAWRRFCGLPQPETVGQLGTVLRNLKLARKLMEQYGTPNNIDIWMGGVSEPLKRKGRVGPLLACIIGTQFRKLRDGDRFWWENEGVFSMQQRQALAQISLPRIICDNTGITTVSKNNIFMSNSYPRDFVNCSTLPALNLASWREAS

human serum albumin, sequence (P02768 25-609): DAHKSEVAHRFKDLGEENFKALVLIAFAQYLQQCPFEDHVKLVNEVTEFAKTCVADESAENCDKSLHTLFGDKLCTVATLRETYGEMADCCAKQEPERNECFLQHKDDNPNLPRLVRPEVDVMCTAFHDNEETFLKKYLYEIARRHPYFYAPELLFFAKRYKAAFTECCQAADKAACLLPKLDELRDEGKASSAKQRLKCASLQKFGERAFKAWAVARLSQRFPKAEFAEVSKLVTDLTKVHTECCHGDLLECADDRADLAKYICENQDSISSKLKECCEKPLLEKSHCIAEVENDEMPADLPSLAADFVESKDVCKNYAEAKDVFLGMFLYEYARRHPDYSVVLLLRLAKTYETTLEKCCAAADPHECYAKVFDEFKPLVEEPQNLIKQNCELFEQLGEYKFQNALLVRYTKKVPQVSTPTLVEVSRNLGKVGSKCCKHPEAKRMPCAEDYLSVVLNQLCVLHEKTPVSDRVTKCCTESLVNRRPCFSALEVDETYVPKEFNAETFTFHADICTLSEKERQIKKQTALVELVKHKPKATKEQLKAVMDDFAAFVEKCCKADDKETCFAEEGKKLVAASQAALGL
T1 sequence (P49065 25-608): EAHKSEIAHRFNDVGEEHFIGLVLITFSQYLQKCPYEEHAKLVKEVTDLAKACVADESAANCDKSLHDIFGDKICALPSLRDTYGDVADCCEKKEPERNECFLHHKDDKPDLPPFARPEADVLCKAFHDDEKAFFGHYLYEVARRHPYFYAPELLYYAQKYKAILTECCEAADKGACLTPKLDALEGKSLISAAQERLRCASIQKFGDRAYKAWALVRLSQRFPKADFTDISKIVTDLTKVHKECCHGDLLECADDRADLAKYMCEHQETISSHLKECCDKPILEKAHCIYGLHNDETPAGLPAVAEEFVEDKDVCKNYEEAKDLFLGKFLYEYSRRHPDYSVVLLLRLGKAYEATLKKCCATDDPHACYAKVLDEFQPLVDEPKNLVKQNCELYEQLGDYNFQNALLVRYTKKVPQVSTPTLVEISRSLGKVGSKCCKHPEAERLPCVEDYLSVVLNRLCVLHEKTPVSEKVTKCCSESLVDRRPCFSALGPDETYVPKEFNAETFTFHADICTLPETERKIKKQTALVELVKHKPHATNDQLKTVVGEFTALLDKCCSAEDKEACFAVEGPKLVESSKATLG

Compound | relaxivity ([1]; absence of albumin) | relaxivity ([1]; presence of albumin) | DREMR image intensity, albumin samples ([2]; 4.5% rabbit serum albumin in PBS, ±70 mT ΔB) | standard T1 weighted spin-echo image intensity ([2]; albumin solution and PBS samples, 0-160 μM) | increase of relaxivity slope enhancement ratio over absolute relaxivity enhancement ratio ([3]; 1.5 T) | relaxivity enhancement ratio (activated relaxivity to inactivated relaxivity) ([3]; 1.5 T) | relaxivity slope enhancement ratio (activated r1′ to inactivated r1′) ([3]; 1.5 T) | magnetic field strength at which the relaxivity enhancement ratio peaks ([3]; from FIG. 3) | binding to human serum albumin [4] | increase of relaxivity of the bound form ([4]; 30 Mhz) | increase of relaxivity of the bound form ([4]; 60 MHz) | relaxivity change on conversion to oligomeric form [5]
O=C([O-])CN(CCN(CC(=O)[O-])CC(COP(=O)([O-])OC1CCC(c2ccccc2)(c2ccccc2)CC1)N(CC(=O)[O-])CC(=O)[O-])CC(=O)[O-].[Gd+3].[Na+].[Na+].[Na+] (stereo not drawn) [Vasovist, Gadofosveset trisodium] | 5.2 s⁻¹ mM⁻¹ | 19 s⁻¹ mM⁻¹ | continued to demonstrate dependence on Vasovist concentration | demonstrated significant dependence on Vasovist concentration | 25 fold | 3.7 | 90 | ~0.5 T | strong non-covalent binding | approximately an order of magnitude | approximately four-fold | 
O=C([O-])CN(CCN(CC(=O)[O-])CC(=O)NCCc1c[nH]c2ccc(O)cc12)CCN(CC(=O)[O-])CC(=O)NCCc1c[nH]c2ccc(O)cc12.[Gd+3] [bis-5-HT-DTPA(Gd)] |  |  |  |  |  |  |  |  |  |  |  | enhanced relaxivity
